Where two headings read alike, the source gives them in different places.
Legend:
[1] = molecular target: T1, 5-HT3 receptors (Rattus norvegicus, UniProt P35563); assay: Affinity for the 5-HT3 receptors, [3H]-BRL43694 (Granisetron) binding
T1 construct: from tissue; host or cells: rat cortex and hippocampus
T1 sequence (P35563 24-483): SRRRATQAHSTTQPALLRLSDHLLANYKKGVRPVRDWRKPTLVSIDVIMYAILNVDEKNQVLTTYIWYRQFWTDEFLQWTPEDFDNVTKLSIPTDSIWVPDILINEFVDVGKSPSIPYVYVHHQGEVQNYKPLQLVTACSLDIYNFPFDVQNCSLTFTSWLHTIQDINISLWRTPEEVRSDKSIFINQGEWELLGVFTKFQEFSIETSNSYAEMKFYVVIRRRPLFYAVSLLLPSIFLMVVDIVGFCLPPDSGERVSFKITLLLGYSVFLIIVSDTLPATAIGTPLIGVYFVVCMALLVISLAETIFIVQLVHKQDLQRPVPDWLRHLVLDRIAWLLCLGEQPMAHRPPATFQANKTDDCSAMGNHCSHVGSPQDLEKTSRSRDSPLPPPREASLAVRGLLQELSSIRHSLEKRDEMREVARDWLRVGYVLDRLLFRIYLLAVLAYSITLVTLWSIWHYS
Protocol: a) Affinity for the 5-HT3 Receptors
The method of Nelson et al. (Biochem. Pharmacol. 1989, 38, 1693-95) was followed with slight modifications. Rat cortex and hippocampus were used to produce a pellet having a final concentration of 20 mg of tissue/sample. Specific activity of the tracer: 81 Ci/mmole; incubation time: 30 min; incubation temperature: 25° C.

[2] = molecular target: T2, 5-HT1A receptors (Rattus norvegicus, UniProt P19327); assay: Affinity for the 5-HT1A receptors, [3H]-8-OH DPAT binding; details: for Ki ± SE, 5-HT1A Subtype ([3H]-8OH-DPAT): rat hippocampus, 10 min, 37° C., IN (10^−6M) where no Ki is given
T2 construct: from tissue; host or cells: rat hippocampus
T2 sequence (P19327 1-422): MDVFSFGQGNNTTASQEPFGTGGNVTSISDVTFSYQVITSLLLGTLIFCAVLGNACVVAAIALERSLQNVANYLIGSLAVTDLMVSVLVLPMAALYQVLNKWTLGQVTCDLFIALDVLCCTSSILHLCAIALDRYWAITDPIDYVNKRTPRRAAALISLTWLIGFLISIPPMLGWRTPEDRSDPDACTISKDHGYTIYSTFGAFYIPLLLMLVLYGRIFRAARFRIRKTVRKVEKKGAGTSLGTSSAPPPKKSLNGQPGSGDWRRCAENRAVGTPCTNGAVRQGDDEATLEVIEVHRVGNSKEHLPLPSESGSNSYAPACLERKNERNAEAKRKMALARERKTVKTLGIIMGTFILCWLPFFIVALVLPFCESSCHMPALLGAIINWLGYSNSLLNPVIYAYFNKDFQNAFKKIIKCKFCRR
Protocol: d) Affinity for the 5-HT1A Receptors
The method of Hall et al (J. Neurochem. 1985, 44, 1685-1696) was followed with slight modifications. Rat hippocampus was used to produce a pellet having a final concentration of 4 mg of tissue/sample. Specific activity of the tracer: 137 Ci/mmole; incubation time 10 min; incubation temperature: 37° C.

[3] = molecular target: T3, 5-HT2A Subtype (Rattus norvegicus, UniProt P14842); assay: Affinity for the 5HT2 receptors, [3H]-ketanserine binding; details: for Ki: read-out: Ki ± SE, 5-HT2A Subtype ([3R]-ketanserine)
T3 construct: from tissue; host or cells: rat prefrontal cortex
T3 sequence (P14842 whole entry): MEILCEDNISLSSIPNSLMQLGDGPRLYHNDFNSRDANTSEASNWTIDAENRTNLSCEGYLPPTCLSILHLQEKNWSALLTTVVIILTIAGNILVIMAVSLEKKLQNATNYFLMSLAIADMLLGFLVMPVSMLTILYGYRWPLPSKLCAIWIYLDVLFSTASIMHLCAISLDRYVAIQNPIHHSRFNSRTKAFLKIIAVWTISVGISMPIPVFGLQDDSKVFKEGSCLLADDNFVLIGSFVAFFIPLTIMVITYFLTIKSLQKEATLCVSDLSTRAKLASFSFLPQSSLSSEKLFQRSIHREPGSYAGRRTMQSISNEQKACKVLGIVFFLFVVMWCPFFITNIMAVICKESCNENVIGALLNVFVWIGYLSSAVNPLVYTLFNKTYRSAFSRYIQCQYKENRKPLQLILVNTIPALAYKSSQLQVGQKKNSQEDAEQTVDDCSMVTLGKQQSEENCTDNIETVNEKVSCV
Protocol: c) Affinity for the 5HT2 Receptors
The method of Leysen et al (Mol. Pharmacol. 1982, 21, 301-314) was followed with slight modifications. Rat prefrontal cortex was used to produce a pellet having a final concentration of 8 mg of tisssue/sample. Specific activity of the tracer: 80.9 Ci/mmole; incubation time: 20 min; incubation temperature: 37° C.

[4] = molecular target: T4, serotonin uptake site (Rattus norvegicus, UniProt P31652); assay: Affinity for the serotonin uptake site, [3H]-paroxetine binding
T4 construct: from tissue; host or cells: entire rat brain
T4 sequence (P31652 whole entry): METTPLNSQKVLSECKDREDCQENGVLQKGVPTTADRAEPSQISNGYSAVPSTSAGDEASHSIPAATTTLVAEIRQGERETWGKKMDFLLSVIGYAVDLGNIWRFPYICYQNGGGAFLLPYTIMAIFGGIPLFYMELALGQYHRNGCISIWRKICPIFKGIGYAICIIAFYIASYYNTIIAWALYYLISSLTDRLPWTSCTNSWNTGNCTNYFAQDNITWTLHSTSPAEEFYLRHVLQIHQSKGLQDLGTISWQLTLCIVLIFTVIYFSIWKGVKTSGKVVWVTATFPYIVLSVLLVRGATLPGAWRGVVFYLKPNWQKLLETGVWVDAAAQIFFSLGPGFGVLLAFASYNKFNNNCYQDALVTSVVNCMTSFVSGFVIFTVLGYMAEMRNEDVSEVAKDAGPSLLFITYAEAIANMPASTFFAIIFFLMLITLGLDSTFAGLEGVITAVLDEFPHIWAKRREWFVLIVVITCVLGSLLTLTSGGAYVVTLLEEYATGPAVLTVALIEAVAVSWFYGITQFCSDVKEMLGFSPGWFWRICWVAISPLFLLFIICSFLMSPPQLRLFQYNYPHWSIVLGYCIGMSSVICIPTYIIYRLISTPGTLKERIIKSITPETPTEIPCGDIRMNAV
Protocol: The method of Plenge et al (Eur. J. Pharmacol., 1990, 189, 129-134) was followed with slight modifications. The entire rat brain was used to produce a pellet having a final concentration of 2 mg of tissue/sample. Specific activity of the tracer: 29.7 Ci/mmole; incubation time: 60 min.; incubation temperature: 25° C.

[5] = rat prefrontal cortex, 20 min, 37° C., IN (10^−6M) where no Ki is given
[6] = entire rat brain, 60 min, 25° C., read-out: Ki ± SE, 5-HT Uptake ([3H]-paroxetin)

| SMILES | melting point [°C] | Ki [1] [nM] | Ki ± SE, 5-HT1A Subtype ([3H]-8OH-DPAT) [2] | Ki ± SE, 5-HT2A Subtype ([3R]-ketanserine) [3, 5] | Ki [4, 6] [nM] | other results |
| --- | --- | --- | --- | --- | --- | --- |
| O=C1c2c(ccc3ccccc23)CN1C1CN2CCC1CC2 (racemic) [Compound 6, (R,S)-2-[1-azadicyclo[2.2.2]oct-3-yl]-2,3-dihydro-1H-benz[e]isoindol-1-one] | 153 to 154 | 0.7 ± 0.08 | IN (10^−6M) | – | – | Ki [3]: 26500 ± 8700 nM; Ki [4]: 95.8 ± 9.6 nM |
| O=C1c2c(cnc3ccccc23)CN1C1CN2CCC1CC2 (racemic) [Compound 9, (R,S)-2-[1-azadicyclo[2.2.2]oct-3-yl]-2,3-dihydro-1H-pyrrolo[3,4-c]quinolin-1-one] | – | 1.6 ± 0.6 | IN (10^−6M) | IN (10^−6M) | 124 ± 22 | – |
| O=[N+]([O-])c1ccc2nc(N3CCNCC3)ccc2c1 [6-NO2-quipazine, reference compound] | – | – | – | – | 0.12 ± 0.01 | – |
| CN1[C@@H]2CC[C@H]1C[C@@H](N1Cc3ccc4ccccc4c3C1=O)C2 [Compound 1] | – | 1 ± 0.2 | – | – | 632 ± 51 | Ki ([2]; read-out: Ki ± SE, 5-HT1A Subtype ([3H]-8OH-DPAT)): 30600 ± 6460 nM; Ki [3]: 21100 ± 2300 nM |
| CN1[C@@H]2CC[C@H]1C[C@@H](N1Cc3cnc4ccccc4c3C1=O)C2 [Compound 2, endo-2-[8-methyl-8-azadicyclo[3.2.1]oct-3-yl]-2,3-dihydro-1H-pyrrolo[3,4-c]quinolin-1-one] | 153 to 154 | 1.3 ± 0.2 | IN (10^−6M) | IN (10^−6M) | 503 ± 86 | – |
| CN1[C@@H]2CC[C@H]1C[C@@H](N1Cc3c(Cl)nc4ccccc4c3C1=O)C2 [Compound 3, endo-2-[8-methyl-8-azadicyclo[3.2.1]oct-3-yl]-2,3-dihydro-4-chloro-1H-pyrrolo[3,4-c]quinolin-1-one] | 169 to 171 | 2.6 ± 0.4 | IN (10^−6M) | IN (10^−6M) | 175 ± 30 | – |
| CCCOc1nc2ccccc2c2c1CN(C1CC3CCC(C1)N3C)C2=O (stereo not drawn) [Compound 4, endo-2-[8-methyl-8-azadicyclo[3.2.1]oct-3-yl]-2,3-dihydro-4-propoxy-1H-pyrrolo[3,4-c]quinolin-1-one] | 170 to 171 | 0.7 ± 0.2 | IN (10^−6M) | IN (10^−6M) | 108 ± 15 | – |
| CN1[C@@H]2CC[C@H]1C[C@@H](N1Cc3c(O)nc4ccccc4c3C1=O)C2 [Compound 5, endo-2-[8-methyl-8-azadicyclo[3.2.1]oct-3-yl]-2,3-dihydro-4-hydroxy-1H-pyrrolo[3,4-c]quinolin-1-one] | 245 to 246 | 0.9 ± 0.06 | IN (10^−6M) | IN (10^−6M) | 485 ± 37 | – |
| O=C1c2c(ccc3ccccc23)CN1[C@@H]1CN2CCC1CC2 [Compound 7, (S)-2-[1-azadicyclo[2.2.2]oct-3-yl]-2,3-dihydro-1H-benz[e]isoindol-1-one] | 152 to 154 | 0.3 ± 0.09 | – | – | – | affinity for the 5-HT3 receptor (in words) [1]: sub-nanomolar |
| O=C1c2c(ccc3ccccc23)CN1[C@H]1CN2CCC1CC2 [Compound 8, (R)-2-[1-azadicyclo[2.2.2]oct-3-yl]-2,3-dihydro-1H-benz[e]isoindol-1-one] | 155 to 157 | 1.8 ± 0.5 | – | – | – | – |
| CN1[C@@H]2CC[C@H]1C[C@H](N1Cc3ccc4ccccc4c3C1=O)C2 [Compound 10, reference compound] | – | 85.5 ± 16 | – | – | – | less active than Compound 1 at the 5HT3 receptor ([1]; relative to Compound 1): ~2 orders of logarithmic magnitude |
| CN1[C@@H]2CC[C@H]1C[C@@H](N1Cc3nc4ccccc4cc3C1=O)C2 [Compound 11, endo-2-[8-methyl-8-azadicyclo[3.2.1]oct-3-yl]-2,3-dihydro-1H-pyrrolo[3,4-b]quinolin-1-one, reference compound] | – | 87 ± 37 | – | – | – | less active than Compound 2 at the 5HT3 receptor ([1]; relative to Compound 2): approximately 60 times |
| c1ccc2nc(N3CCNCC3)ccc2c1 [quipazine, reference compound] | – | – | – | – | 31.3 ± 2.9 | Ki [3, 5]: 1810 ± 476 nM |
